Data set [1] can be described thus: Stability in plasma. It counts as in vitro ADME, human. Particulars: for stability: 60 min. As for the experimental part: (§1) For analysis of samples, two volumes of cold methanol-acetonitrile (50:50, v/v) were added to portions of plasma, culture medium, or cell extract. The preparations were mixed and then centrifuged to obtain clear supernatants, which were dried at room temperature by compressed air. The residues were dissolved in the mobile phase, and a portion was injected onto the HPLC column.
(§2) The HPLC equipment consisted of a Hewlett Packard 1050 ChemStation with a fluorescence detector (Agilent 100 series). […] The mobile phase was methanol:ammonium acetate buffer (87:13 v/v; 0.2 M; pH 5.8, adjusted with HCl). The flow rate was 1 ml/min. The column elute was monitored fluorometrically at an excitation wavelength of 232 nm and an emission wavelength of 418 nm. The amounts of test compounds present in samples were determined from the peak areas.
(§3) Samples of mouse, rat, dog, and human plasma were incubated at 37° C. with and without addition of NaF (2.5 mg/ml) and EDTA (1 mg/ml). To these preparations, 2-OMe antimycin A1, 2-OMe antimcyin A2, 2-OMe antimycin A3, or 2-OMe antimycin A5, dissolved in methanol, was added to final concentrations of 500 ng/ml. Portions of plasma, taken at selected times after addition of the 2-OMe antimycin analog, were extracted and analyzed.
(§4) Similarly, the stability of 2-OMe antimycin A1, 2-OMe antimycin A2, […] in the plasma from mice and humans was evaluated at −80° C. From these preparations, portions were analyzed immediately; other portions were stored at -80° C. and analyzed after 1, 2, and 4 weeks.

Data set [2] can be described thus: Stability in plasma. Particulars: 37° C., 60 min; for stability: presence of NaF/EDTA. It counts as in vitro ADME, dog. As for the experimental part: as §1, §2, §3
Data set [3] relates to plasma proteins. In words: Binding to plasma proteins (ultrafiltration). Type of data set: in vitro ADME, rat. Particulars: presence of NaF+EDTA, 1000 ng/ml.
Data set [4] can be described thus: Stability in plasma. The conditions noted are these: 37° C., 60 min, presence of NaF/EDTA. It counts as in vitro ADME, rat. On the procedure:
as §1, §2, §3

In data set [5] the test system is plasma proteins. Nature of the data set: Binding to plasma proteins (ultrafiltration). It counts as in vitro ADME, dog. The conditions noted are these: presence of NaF+EDTA, 1000 ng/ml. On the procedure:
(§5) Solutions of 2-OMe antimycin A3 were diluted with plasma (dog or human) containing NaF+EDTA to final concentrations of 1.0 or 0.2 μg/ml. Controls were diluted with water to the same final concentrations. These preparations were incubated at 37° C. for 20 min, at which time portions were taken and placed in the sample reservoirs of Amicon Centrifree® ultrafiltration systems (Millipore Co., Bedford, Mass.). At 37° C., the filter systems were centrifuged until the reservoirs were dry. From each filtrate, portions were taken for analysis by HPLC. The amounts present were designated as “free drug” (F). The concentrations of the unfiltered solutions were also determined by triplicate analyses. This amount represented the “total drug” concentration (T). The percentage of 2-OMe antimycin A3 bound to plasma proteins was calculated by the following formula: % bound=((T−F)/T)×100
Similar experiments were performed for 2-OMe antimycin A3 in dog or rat plasma in the absence of NaF/EDTA.

In the next data set the test system is RPMI-8226 cells. Nature of the data set: GI50 assay (MTT). It counts as cell-based, human. As for the experimental part:
RPMI 8226 cells were grown in 96 well plates for 24 h prior to addition of 2-methoxy Antimycins. Antimycin stocks in DMSO were serially diluted in RPMI media. Cells were incubated for 48 h with compounds at final compound concentrations ranging from 10^−4 to 10^−8 M. MTT assays were performed in quadruplicate and percent growth inhibitions were calculated as (A570 (control cells)—A570 (treated cells))/A570 (control cells). The GI50 was extrapolated from semi-log plots of the dose response for each compound. […] After 72 h drug exposures, 1 μCi/ml [^3H]-thymidine was added to wells. Cells were incubated for an additional 24 h, and then transferred to GF/C filter plates (Packard) using a plate washer. Filters were dried, added to scintillant, and counted in a TopCount scintillation counter (Packard). Drug response was expressed as the percentage of vehicle-treated controls, and each value shown as the average of three determinations.

Data set [6] concerns plasma proteins. Nature of the data set: Binding to plasma proteins (ultrafiltration). The conditions noted are these: presence of NaF+EDTA, 1000 ng/ml. It counts as in vitro ADME, mouse. On the procedure: as §5
In data set [7] the test system is plasma proteins. Nature of the data set: Binding to plasma proteins (ultrafiltration). It counts as in vitro ADME, human. The conditions noted are these: presence of NaF+EDTA, 1000 ng/ml. On the procedure: as §5
Data set [8] in a line: Stability in plasma. It counts as in vitro ADME, mouse. The conditions noted are these: for stability: 37° C., 60 min. As for the experimental part:
as §1, §2, §3, §4

The target of data set [9] is T1, recombinant human Bcl-2ΔC22 (Homo sapiens, UniProt P10415).
T1 construct: poly-His (N); made in house
In words: Antimycin A3 fluorescence binding and competition assay. The conditions noted are these: 2 μM each, Bcl-2 3 μM, 7.5 minutes, 22.5° C. As for the experimental part:
In this assay, 0 to 5 μM antimycin A3 (Sigma Chemical Co., St. Louis, Mo.) was added to a physiological buffer (50 mM Tris-HCl pH 8.0, 0.2 M NaCl, 2 mM EDTA, 0.5% v/v glycerol) containing recombinant Bcl-2 or BCl-xL protein under conditions that permitted antimycin A3 to bind to the BH3-binding domain of Bcl-2 or BCl-xL (22.5° C. on a Hitachi F-2500 fluorescence spectrofluorimeter equipped with a thermostatted cell holder). […] The excitation wavelength was 335 nm, and the maximum emission wavelength for antimycin A3 was 428 nm with a slit width of 10 nm. The samples were mixed in a quartz cuvette and checked for inner filter effect over the concentration range of antimycin A3 used for this study. Blanks containing antimycin A3 at the same concentration as the experimental samples were used as controls in all measurements and necessary background corrections were made.
Recombinant human Bcl-2ΔC22 (a recombinant human Bcl-2 with a delection of 22 amino acid residue membrane anchor sequence from the carboxyl end) and mouse Bcl-xLΔC20 (a recombinant murine BCl-xL with a delection of the 20 amino acid residue membrane anchor sequence from the carboxyl end) fused with poly-His at the N-terminus were chromatographically purified to homogeneity. The concentrations of antimycin A3 and stock solutions of recombinant proteins were quantitated using an extinction coefficient of 7.24/mM/cm at 320 nm and by Bradford assay, respectively. The stoichiometric ratio of antimycin A3 and Bcl-2 producing the maximal change in antimycin A3 fluorescence was determined with incremental addition of antimycin A3 to a 1.98 μM solution of recombinant Bcl-2 in a volume of 2.1 milliliters. […] For peptide displacement experiments, a solution of 2 μM antimycin A3 and 3 μM Bcl-2 was allowed to reach binding equilibrium at 4° C. prior to fluorescence measurements. Native peptide corresponding to the BH3 domain of Bak (72-[…]87 (SEQ ID NO:1)) or a mutant peptide with a single amino acid change (Leu78Ala-BH3) was added to the solution and the fluorescence measurements were repeated. […]

For a further data set, the target named is T2, Bcl-xL(ΔC) WT (Homo sapiens, UniProt Q07817).
T2 construct: inferred from Ni-NTA purification and the pET22b(+) NdeI/XhoI cloning); made in house; host or cells: Escherichia coli BL21(DE3) carrying pUB520
In words: Pore-forming activity, calcein release from liposomes. Type of data set: biochemical. As for the experimental part:
Large unilamellar vesicles composed of 60% dioleoylphophatidylcholine and 40% dioleoylphosphatidylglycerol were prepared by the extrusion method of Mayer et al., supra. Lipid stocks, in chloroform, were mixed and dried under a stream of nitrogen gas. The lipid was resuspended by vortexing for 30 min in a solution of 40 mM calcein (Molecular Probes), 25 mM KCl, and 10 mM KOAc, pH 5.0. After 10 freeze-thaw cycles, the lipid suspension was extruded through two 0.1 μm pore diameter Nucleopore filters. Non-entrapped dye was removed by passage over a Sephadex G10 column (Amersham Biosciences). Lipid concentration was measured using the ammonium ferrothiocyanate method (Stewart, Anal. Biochem. 104:10-14, 1980).
For pore assays, recombinant truncated Bcl-2 family protein or mutant protein (Bcl-xL(ΔC)) (500 nM) was added to large unilamellar vesicles (60 μM lipid concentration) in 100 mM KCl, 10 mM KOAc, pH 5.0, and fluorescence measured (490 nm excitation, 520 nm emission) with a Fluoromax-3 spectrophotometer. Peptides of the BH3 domain were incubated with the BCl-xL(ΔC) 5 min prior to mixing with liposomes. AA1 was added to liposomes 1 min before adding the Bcl-xL(ΔC) protein. Samples for kinetic assays were analyzed in a thermostatted cuvette at 37° C. with constant stirring. Dose responses were measured in black quartz microplates (Hellma) at room temperature. Calcein release was expressed as percentage of maximum release with detergent lysis (0.1% Triton X-100).

What is called GI50 is the concentration at which growth is held to half of that of the control. A lower GI50 goes with greater sensitivity of the cells.

T2 sequence (Q07817 1-211 limits assumed, stated change not applied): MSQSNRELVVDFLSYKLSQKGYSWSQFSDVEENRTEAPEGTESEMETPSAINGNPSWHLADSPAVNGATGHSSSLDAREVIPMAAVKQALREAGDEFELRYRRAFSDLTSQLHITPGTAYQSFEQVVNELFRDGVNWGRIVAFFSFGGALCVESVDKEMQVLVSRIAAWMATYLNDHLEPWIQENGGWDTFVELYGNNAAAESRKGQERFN
T1 sequence (P10415 1-217 limits assumed, stated change not applied): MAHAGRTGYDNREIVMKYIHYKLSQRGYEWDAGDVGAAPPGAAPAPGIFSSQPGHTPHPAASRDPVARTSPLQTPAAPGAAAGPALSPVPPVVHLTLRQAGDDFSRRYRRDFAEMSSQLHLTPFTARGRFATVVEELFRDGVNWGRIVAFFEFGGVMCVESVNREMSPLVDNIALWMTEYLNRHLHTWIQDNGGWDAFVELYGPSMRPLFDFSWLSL

For `CCCCCC[C@H]1C(=O)O[C@H](C)[C@H](NC(=O)c2cccc(NC=O)c2OC)C(=O)O[C@@H](C)[C@@H]1OC(=O)CCC` [2-OMeA2, 2-methoxy antimycin A2], the stability entry in the data set “Stability in plasma [1]” (37° C., presence of NaF/EDTA) is “generally stable”; in the data set “Stability in plasma [2]”, “generally stable”; in the data set “Stability in plasma [4]”, “generally stable”; in “Stability in plasma [8]” (presence of NaF/EDTA) it was “generally stable”. For the same molecule, the decrease in concentration in the data set “Stability in plasma [1]” (37° C., presence of NaF/EDTA) is given as 18%. Also, the “amounts remaining after 4 weeks” value was found to be 83% in the data set “Stability in plasma [1]” (-80° C., presence of NaF/EDTA); 70% in “Stability in plasma [1]” (−80° C., absence of NaF/EDTA); 77% in the data set “Stability in plasma [8]” (-80° C., presence of NaF/EDTA); 63% in the data set “Stability in plasma [8]” (−80° C., absence of NaF/EDTA). The same molecule displayed an added amount remaining in “Stability in plasma [2]” (absence of NaF/EDTA, 500 ng/ml) of 53%. Moreover, the “Protein binding, Rat” value with plasma proteins [3] amounted to 99.9%. The “Protein binding, Dog” value with plasma proteins [5] is reported as 99.9%. For the same molecule, in the data set with RPMI-8226 cells (48 h, MTT), the GI50 was determined as 12.2 µM. Further, the “Protein binding, Mouse” value in the data set with plasma proteins [6] worked out at 99.7%. In addition, the “Protein binding, Human” value in the data set on plasma proteins [7] is over 99.9%.
For `CC[C@H]1C(=O)O[C@H](C)[C@H](NC(=O)c2cccc(NC=O)c2OC)C(=O)O[C@@H](C)[C@@H]1OC(=O)CC(C)C` [2-OMeA5, 2-OMe antimycin A5], the stability entry in “Stability in plasma [1]” (37° C., presence of NaF/EDTA) was “stable”; in the data set “Stability in plasma [2]”, “stable”; in the data set “Stability in plasma [4]”, “notable decreases in concentration”; in “Stability in plasma [8]” (presence of NaF/EDTA), “notable decreases in concentration”. For the same molecule, the “amounts remaining after 4 weeks” value amounted to 92% in the data set “Stability in plasma [1]” (-80° C., presence of NaF/EDTA); 79% in the data set “Stability in plasma [1]” (−80° C., absence of NaF/EDTA); 63% in the data set “Stability in plasma [8]” (-80° C., presence of NaF/EDTA); 27% in “Stability in plasma [8]” (−80° C., absence of NaF/EDTA). The “Protein binding, Rat” value with plasma proteins [3] is over 99.9%. In the data set with plasma proteins [5], the “Protein binding, Dog” value was 99.1%. Moreover, in the data set on RPMI-8226 cells, the “activity relative to 2-OMeA1, 2-OMeA2 and 2-OMeA3 (GI50)” value was “approximately ⅓”. For the same molecule, the “Protein binding, Mouse” value in the data set on plasma proteins [6] stood at 99.7%. The “Protein binding, Human” value in the data set with plasma proteins [7] was 99.6%.
For `CCCC[C@H]1C(=O)O[C@H](C)[C@H](NC(=O)c2cccc(NC=O)c2OCC(=O)c2ccccc2)C(=O)O[C@@H](C)[C@@H]1OC(=O)CC(C)C` [phenacyl ether antimycin A3], in data set [9], the “competition with antimycin A3 for Bcl-2” value was “did not displace antimycin A3”. Moreover, the “effect on Bcl-xL pore-forming activity” value on Bcl-xL(ΔC) WT is “no effect”.
